Nine compounds from patent US4016287A, “Dermatological compositions containing an acylamino-carboxylic acid or an alkyl ester thereof” (Boehringer Ingelheim GmbH, priority 1975, dated 1977) can be followed below.

The structures appear in SMILES notation. Where only a bound is given, the exact number is not on record here.

Data set [1] has as its system dinitrochlorobenzene-eczema. Nature of the data set: antiphlogistic activity, dinitrochlorobenzene-eczema method. The data set is classed as in vivo, guinea pigs. The following applies: Cavia porcellus, topical; ethanolic 5% solution on shaved flanks, 30 minutes before 1% dinitrochlorobenzene; visual evaluation after 22 hours; read-out: Inhibition of dinitrochlorobenzene-eczema over control. Here is the method: The antiphlogistic activity was ascertained by the dinitrochlorobenzene-eczema method [see A. I. Scott, Brit. J. Dermatol. 77, 586 (1965)].
The compound to be tested was applied in the form of an ethanolic 5% solution to the shaved flanks of a group of 10 guinea pigs which has been sensitized with dinitrochlorobenzene. An analogous control group was treated with only ethanol. The treatment was effected 30 minutes prior to release of the allergic reaction with a 1% solution of dinitrochlorobenzene in acetone. The results were visually evaluated 22 hours thereafter.

The test system of data set [2] is sebaceous gland excretion. Nature of the data set: sebaceous gland excretion-inhibiting activity, glass block method (refatting of forehead skin). Format: in vivo, human. To be noted: ethanolic 5% solution, 0.25 ml on half of forehead; for Average extinction values, Difference: difference between treated and controls (ethanol); for Average extinction values, Treated: skin fat removed after 90 minutes, refatting measured after three additional hours, treated group. Here is the method:
The sebaceous gland excretion-inhibiting activity was ascertained by the glass block method described by Schaefer and Kuhn-Bussius in Arch. Klin. exper. Derm. 238, 429-435 (1970). Small glass blocks, the facets of which have been roughened or frosted, are pressed against the skin surface where the amount of skin fat is measured. The skin fat or sebum transferred from the skin to the glass facet makes the blocks more translucent, and the increase in translucence is directly proportional to the amount of sebum present in the skin area. The translucence is measured in a photometer. Prior to measurement of the degree of refating of the skin, the skin fat was removed with a plastic foil.
0.25 ml of an ethanolic 5% solution of the compound to be tested was applied to half of the forehead of 5 to 10 human test subjects, while 0.25 ml of ethanol was applied to half of the forehead of a group of 5 to 10 control subjects. After 90 minutes the skin fat was removed with the plastic foil, and after three additional hours the degree of refatting was determining with the aid of the small glass blocks referred to above.

Data set [3] can be described thus: acute toxicity, LD50 mouse i.p. The following applies: in vivo, ip.

On to `CCCCCCCCCCCCCCCCOC(=O)CNC(C)=O` [A, n-acetyl-glycine hexadecyl ester], for which the inhibition in vivo at 5 % in data set [1] was 46%. Also, in data set [2], the “Average extinction values, Difference” value is on record as 9.5 and the “Average extinction values, Treated” value was determined as 75.5.

Turning to `CCCCCCCCCCCCCCCCOC(=O)C(C)NC(C)=O` (stereo not drawn) [B, n-acetyl-alanine hexadecyl ester], the inhibition in vivo at 5 % in data set [1] was determined as 19%. Besides, in data set [2], the “Average extinction values, Difference” value was 7.5 and the “Average extinction values, Treated” value came to 74.0.

By LD50 is commonly meant the dose expected to kill half of the subjects tested. Consider `CCCCCCCCCCCCCCCCOC(=O)CNC(=O)c1ccccc1` [Compound C, n-benzoyl-glycine hexadecyl ester], for which, in data set [1], the inhibition in vivo at 5 % stood at 28%. Further, the LD50 in data set [3] is over 4000 mg/kg. In data set [2], the “Average extinction values, Difference” value amounted to 16.5 and the “Average extinction values, Treated” value was 78.5.

For `CCCCCCCCCCCCCCCCOC(=O)CN(C)C(C)=O` [D, n-acetyl-sarcosine hexadecyl ester], the inhibition in vivo at 5 % in data set [1] was 20%. In data set [2], the “Average extinction values, Difference” value is reported as 9.0 and the “Average extinction values, Treated” value is recorded as 86.5.

Consider `CCCCCCCCCCCCCCCCOC(=O)CNC=O` [F, n-formyl-glycine hexadecyl ester], for which the inhibition in vivo at 5 % in data set [1] was found to be 50%.

For `CCCCCCCCCCCCCCCCOC(=O)CNC(=O)CC` [G, n-propionyl-glycine hexadecyl ester], in data set [1], the inhibition in vivo at 5 % was found to be 34%.

In the case of `CCCCCCCCCCCCCC(=O)NCC(=O)O` [H, n-tetradecanoyl-glycine], the inhibition in vivo at 5 % in data set [1] was determined as 38%.

For the compound `O=C(O)CCCNC(=O)c1ccc(-c2ccccc2)cc1` [I, n-(4'-phenyl-benzoyl)-4-amino-butyric acid], the inhibition in vivo at 5 % in data set [1] was 36%.

Consider `CCCCCCCCCCCCCCCCOC(=O)CCNC(C)=O` [J, n-acetyl-β-alanine hexadecyl ester], for which the inhibition in vivo at 5 % in data set [1] turned out to be 35%.
